Results taken from patent US4460777A, “N-Substituted-2-pyridylindoles” (Ciba-Geigy Corporation, priority 1982, dated 1984).
pIC50: −log10 of the molar value.

How the values were obtained:
thromboxane synthetase = target: T1, thromboxane synthetase (Homo sapiens, UniProt P24557); test: in vitro inhibition of the thromboxane synthetase enzyme; format: biochemical; details: ratio TxB2/PGF2α+β reduced to 50% of control
T1 construct: crude microsomal preparation of thromboxane synthetase from lysed human platelets; from tissue; host or cells: lysed human platelets, crude microsomal preparation
T1 sequence (P24557 1-533): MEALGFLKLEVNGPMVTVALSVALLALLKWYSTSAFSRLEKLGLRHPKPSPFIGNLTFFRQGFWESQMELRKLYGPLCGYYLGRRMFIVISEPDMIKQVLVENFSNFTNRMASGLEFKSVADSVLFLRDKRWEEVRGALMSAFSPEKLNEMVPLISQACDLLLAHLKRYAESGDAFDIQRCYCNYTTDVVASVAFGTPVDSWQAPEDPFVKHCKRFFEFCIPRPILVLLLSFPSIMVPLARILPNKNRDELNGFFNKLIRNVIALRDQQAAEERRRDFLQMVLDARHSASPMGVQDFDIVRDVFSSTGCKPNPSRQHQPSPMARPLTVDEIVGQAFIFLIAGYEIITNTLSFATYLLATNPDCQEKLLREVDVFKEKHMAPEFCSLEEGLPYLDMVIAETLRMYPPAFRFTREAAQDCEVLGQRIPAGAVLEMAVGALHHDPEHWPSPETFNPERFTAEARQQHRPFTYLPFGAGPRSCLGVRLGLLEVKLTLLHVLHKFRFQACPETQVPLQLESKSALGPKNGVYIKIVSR
Procedure: Res. Comm. 74, 1432 (1977); the testi g procedure is as follows:
^14 C-Archidonic acid is incubated with an enzyme consisting of solubilized and partially purified prostaglandin cyclo-oxygenase from sheep seminal vesicles and a crude microsomal preparation of thromboxane synthetase from lysed human platelets. The test compound (dissolved in buffer, or if necessary, in a small amount of ethanol) is added to the incubation medium. At the end of the incubation period (30 minutes), Prostaglandin E2 (PGE2) is reduced to a mixture of Prostaglandin F2 α and F2 β (PGF2α+β) by addition of sodium borohydride. The radioactive products and excess substrate are extracted into ethyl acetate; the extract is evaporated to dryness; the residue is dissolved in acetone, spotted on thin-layer plates and chromatographed in the solvent system toluene:acetone:glacial acetic acid (100 volumes:100 volumes:3 volumes). The radioactive zones are located; those corresponding to Thromboxane B2 (TxB2) and PGF2 α+β are transferred to liquid scintillatiopn vials and counted. The ratio of counts for TxB2 /PGF2 α+β is calculated for each concentration of test compound and IC50 values are determined graphically as the concentration of test compound at which the ratio of TxB2 /PGF2 α+β is reduced to 50% of the control value.

prostacyclin (PGI2) = test: plasma levels of prostacyclin in vivo after ionophore A23187 in rats; details: rat, oral dose 0.10 mg/kg or higher
Procedure: (§1) The inhibition of the synthesis and the reduction of plasma levels of thromboxane is determined in vivo on administration to rats in the following manner (as adapted from the procedures described by Tai et al. in Anal. Biochem. 87:343, 1978 and by Salmon in Prostaglglandins 15:383, 1978):
(§2) Rats are dosed with vehicle or test drug and injected intravenously with ionophore A23187 (0.5 mg/kg) two hours later. Blood is collected for analysis 2 minutes after the ionophore injection. A single aliquot of each plasma sample is assayed for thromboxane B2 and another aliquot for 6-keto-PGF1 α, the stable metabolites of thromboxane A2 and prostacyclin (PGI2) respectively, by radioimmunoassay.

[1] = prolongation of bleeding time in the rat; format: in vivo; details: oral, dose of about 30 mg/kg
Text: Experimentally, prolongation of bleeding time in the rat is indicative of a beneficial antithrombotic effect.

platelet aggregation = test: inhibition of variously induced platelet aggregation
thromboxane B2 = test: plasma levels of thromboxane B2 in vivo after ionophore A23187 in rats; details: rat, oral dose as low as 0.10 mg/kg
Procedure: as §1, §2

thrombocytopenia = test: inhibition of thrombocytopenia
[2] = target: T2, prostaglandin cyclooxygenase (Ovis aries, UniProt P05979); test: in-vitro effect on prostaglandin cyclooxygenase; format: biochemical, sheep; details: 50% reduction in PGE2 synthesized, read-out: IC50 for inhibition of cyclooxygenase
T2 construct: Lyophilized sheep seminal vesicle microsomes are utilized as the prostaglandin-synthesizing enzyme preparation; from tissue; host or cells: lyophilized sheep seminal vesicle microsomes
T2 sequence (P05979 25-600): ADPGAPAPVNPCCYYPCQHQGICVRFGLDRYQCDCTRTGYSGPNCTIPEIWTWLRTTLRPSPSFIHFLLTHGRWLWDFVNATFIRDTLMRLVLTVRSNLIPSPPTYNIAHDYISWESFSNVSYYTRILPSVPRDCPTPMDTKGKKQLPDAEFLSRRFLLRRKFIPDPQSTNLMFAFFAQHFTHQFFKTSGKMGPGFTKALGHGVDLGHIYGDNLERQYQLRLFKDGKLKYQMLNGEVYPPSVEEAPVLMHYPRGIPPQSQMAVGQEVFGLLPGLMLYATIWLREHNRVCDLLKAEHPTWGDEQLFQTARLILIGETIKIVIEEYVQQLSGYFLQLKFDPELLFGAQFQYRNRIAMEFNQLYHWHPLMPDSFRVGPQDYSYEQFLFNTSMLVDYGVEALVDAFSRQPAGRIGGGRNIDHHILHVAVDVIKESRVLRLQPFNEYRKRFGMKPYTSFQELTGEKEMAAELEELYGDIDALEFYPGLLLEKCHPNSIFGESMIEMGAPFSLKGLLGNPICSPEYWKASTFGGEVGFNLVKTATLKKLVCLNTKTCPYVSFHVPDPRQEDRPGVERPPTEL
Procedure: The in-vitro effect on prostaglandin cyclooxygenase is measured by a modification of the method of Takeguchi et al. described in Biochemistry 10, 2372 (1971); the testing procedure is as follows: Lyophilized sheep seminal vesicle microsomes are utilized as the prostaglandin-synthesizing enzyme preparation. The conversion of ^14 C-arachidonic acid to PGE2 is measured. Test compounds (dissolved in buffer, or if necessary, in small amount of ethanol) are added to the incubation mixture. The prostaglandins are extracted and separated by thin-layer chromatography; the plates are scanned, the radioactive zones corresponding to PGE2 are transferred to liquid scintillation vials and counted for radioactivity. IC50 values for inhibition are determined graphically as the concentration of test compound causing a 50% reduction in the amount of PGE2 synthesized.

[3] = target: T3, prostacyclin (PGI2) synthetase (Bos taurus, UniProt Q29626); test: in-vitro effect on prostacyclin (PGI2) synthetase; format: biochemical, bovine; details: ratio 6-keto-PGF1α/PGE2 reduced to 50% of control, read-out: IC50 for inhibition of prostacyclin synthetase
T3 construct: crude PGI2 synthetase in the form of a microsomal fraction of bovine aorta; from tissue; host or cells: bovine aorta, microsomal fraction
T3 sequence (Q29626 1-500): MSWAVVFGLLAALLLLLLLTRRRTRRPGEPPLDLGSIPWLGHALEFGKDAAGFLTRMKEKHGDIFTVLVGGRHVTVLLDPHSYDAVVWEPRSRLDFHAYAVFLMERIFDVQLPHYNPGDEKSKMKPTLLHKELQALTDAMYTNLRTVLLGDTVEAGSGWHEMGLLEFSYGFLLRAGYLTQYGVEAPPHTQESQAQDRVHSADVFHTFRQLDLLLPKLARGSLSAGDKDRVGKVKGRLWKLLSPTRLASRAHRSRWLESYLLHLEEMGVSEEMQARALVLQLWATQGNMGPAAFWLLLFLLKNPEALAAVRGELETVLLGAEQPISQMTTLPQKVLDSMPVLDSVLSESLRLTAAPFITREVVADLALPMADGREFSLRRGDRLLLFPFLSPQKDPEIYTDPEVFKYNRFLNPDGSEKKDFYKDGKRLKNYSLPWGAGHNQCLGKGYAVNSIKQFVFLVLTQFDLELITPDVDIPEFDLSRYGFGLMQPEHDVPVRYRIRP
Procedure: The in-vitro effect on prostacyclin (PGI2) synthetase is measured analogous to the method of Sun et al., Prostaglandins 14, 1055 (1977);
The testing procedure is as follows:
^14 C-Arachidonic acid is incubated with an enzyme mixture consisting of solubilized and partially purified prostaglandin cyclo-oxygenase from sheep seminal vesicles and crude PGI2 synthetase in the form of a microsomal fraction of bovine aorta.
Test compound (dissolved in buffer, or if necessary, in a small amount of ethanol) is placed in the incubation medium. The reaction mixture is incubated in 100 mM Tris HCl (pH 7.5) for 30 minutes at 37° C., acidified to pH 3 and extracted into ethyl acetate. The extract is evaporated to dryness; the residue is dissolved in acetone, spotted on thin-layer plates and chromatographed in a solvent system described in Sun et al. The radioactive zones are located with a scanner; those corresponding to 6-keto-PGF1 α (a stable end product of prostacyclin biotransformation) and PGE2 are transferred to liquid scintillation vials and counted. The ratio of counts for 6-keto-PGF1 α/PGE2 is calculated for each concentration of test compound used. IC50 values for inhibition are determined graphically as the concentration of test compound at which the ratio of 6-keto-PGF1 α/PGE2 is reduced to 50% of the control value.

[4] = test system: arachidonic acid induced pulmonary obstruction; test: protection against sudden death due to arachidonic acid induced pulmonary obstruction; format: in vivo; details: mice, oral, 100 mg/kg

Cc1c(-c2cccnc2)n(CCCCCC(N)=O)c2ccc(Cl)cc12 [Example 13, 1-(5-carbamoylpentyl)-5-chloro-3-methyl-2-(3-pyridyl)indole]
pIC50 (thromboxane synthetase): 8.00

Cc1c(-c2cccnc2)n(CCCCCC(=O)O)c2ccc(Cl)cc12 [Example 7, 1-(5-carboxypentyl)-5-chloro-3-methyl-2-(3-pyridyl)indole]
pIC50 (thromboxane synthetase): 9.00

Cc1c(-c2cccnc2)n(Cc2ccc(C(=O)O)cc2)c2ccccc12 [Example 11, 1-(4-carboxybenzyl)-3-methyl-2-(3-pyridyl)indole]
pIC50 (thromboxane synthetase): 7.30

Cc1c(-c2cccnc2)n(CCCCCC(=O)O)c2ccc(CCC(=O)O)cc12 [Example 9, 1-(5-carboxypentyl)-5-(2-carboxyethyl)-3-methyl-2-(3-pyridyl)indole]
pIC50 (thromboxane synthetase): 7.70

Cc1c(-c2cccnc2)n(CCCCCCCC(=O)O)c2ccccc12 [Example 1, 1-(7-carboxyheptyl)-3-methyl-2-(3-pyridyl)indole]
plasma level of prostacyclin (prostacyclin (PGI2)): a surprising increase
bleeding time [1]: prolongs bleeding time
inhibition of variously induced platelet aggregation (platelet aggregation): inhibits
decrease of the plasma concentration of thromboxane B2 (thromboxane B2): over 50%
inhibition of thrombocytopenia (thrombocytopenia): inhibits
pIC50 [2]: ~4.00
pIC50 [3]: ~4.00
protection against sudden death [4]: protects against sudden death
